Reference: patent publication US11945806B2, “Stabilization of amyloidogenic immunoglobulin light chains” (The Scripps Research Institute, priority 2019, dated 2024)

The compounds below were run against WIL-FL (Homo sapiens, UniProt P01721) (assay: Unlabeled LC Protease Sensitivity Assay (proteinase K)). Settings: small molecule 10 μM, WIL-FL 5 μM, proteinase K 50 nM, 2 hours at 37° C.
Type: biochemical
How it was run: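 Compound at 10 μM (1% DMSO) is mixed with 5 μM WIL-FL and 50 nM proteinase K in PBS pH 7.4/0.02% Pluronic F-127, 37 °C, 2 h, then quenched with PMSF. Remaining protein measured by SEC-UPLC peak area at 280 nm and expressed as fold protection relative to vehicle and no-protease controls.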

| Structure (SMILES) | Protection (fold protection of LC from protease) |
| --- | --- |
| CCN(CC)c1ccc2c(C)c(CCOC(=O)NCc3ccncn3)c(=O)oc2c1 [Compound 90, 2-(7-(diethylamino)-4-methyl-2-oxo-2H-chromen-3-yl)ethyl (pyrimidin-4-ylmethyl)carbamate] | A (A < 0.3)) |
| CCN(CC)c1ccc2c(C)c(CCOC(=O)NCC3CCCNC3)c(=O)oc2c1 (stereo not drawn) [Compound 146, 2-(7-(diethylamino)-4-methyl-2-oxo-2H-chromen-3-yl)ethyl (piperidin-3-ylmethyl)carbamate] | B (3 ≤ B < 0.6) |
| CCN(CC)c1ccc2c(C)c(CCOC(=O)N3CC(C(=O)OC)C3)c(=O)oc2c1 [Compound 104, 1-(2-(7-(diethylamino)-4-methyl-2-oxo-2H-chromen-3-yl)ethyl) 3-methyl azetidine-1,3-dicarboxylate] | A (A < 0.3)) |
| Cc1cc(=O)oc2cc(N(C)C)ccc12 [Compound 266, 7-(dimethylamino)-4-methyl-2H-chromen-2-one] | A (A < 0.3)) |
| CCN(CC)c1ccc2c(C)c(CC(=O)NCCCCc3ccccc3)c(=O)oc2c1 [Compound 57, 2-(7-(diethylamino)-4-methyl-2-oxo-2H-chromen-3-yl)-N-(4-phenylbutyl)acetamide] | A (A < 0.3)) |
| CCN(CC)c1ccc2c(C)c(CCN3C(=O)NC4(CCN(S(=O)(=O)NC)C4)C3=O)c(=O)oc2c1 (stereo not drawn) [Compound 204, 3-(2-(7-(diethylamino)-4-methyl-2-oxo-2H-chromen-3-yl)ethyl)-N-methyl-2,4-dioxo-1,3,7-triazaspiro[4.4]nonane-7-sulfonamide] | B (3 ≤ B < 0.6) |
| CCN(CC)c1ccc2c(C)c(CCOC(=O)NCc3cccc(-c4cc[nH]n4)c3)c(=O)oc2c1 [Compound 159, 2-(7-(diethylamino)-4-methyl-2-oxo-2H-chromen-3-yl)ethyl (3-(1H-pyrazol-5-yl)benzyl)carbamate] | C (C ≥ 0.6) |
| Cc1ccccc1C(C)Oc1ccc2c(C)cc(=O)oc2c1 (stereo not drawn) [Compound 45, 4-methyl-7-(1-(o-tolyl)ethoxy)-2H-chromen-2-one] | A (A < 0.3)) |
| CCN(CC)c1ccc2c(C)c(CCN3C(=O)NC4(CCN(C(=O)c5ccc[nH]c5=O)CC4)C3=O)c(=O)oc2c1 [Compound 178, 3-(2-(7-(diethylamino)-4-methyl-2-oxo-2H-chromen-3-yl)ethyl)-8-(2-oxo-1,2-dihydropyridine-3-carbonyl)-1,3,8-triazaspiro[4.5]decane-2,4-dione] | A (A < 0.3)) |
| CCN(CC)c1ccc2c(C)c(CCNC(=O)NCc3ccc4c(=O)[nH]ccc4c3)c(=O)oc2c1 [Compound 296, 1-(2-(7-(diethylamino)-4-methyl-2-oxo-2H-chromen-3-yl)ethyl)-3-((1-oxo-1,2-dihydroisoquinolin-6-yl)methyl)urea] | B (3 ≤ B < 0.6) |
| CCN(CC)c1ccc2c(C)c(CCOC(=O)N3CCC(Cc4cccnc4)CC3)c(=O)oc2c1 [Compound 118, 2-(7-(diethylamino)-4-methyl-2-oxo-2H-chromen-3-yl)ethyl 4-(pyridin-3-ylmethyl)piperidine-1-carboxylate] | B (3 ≤ B < 0.6) |
| CCN(CC)c1ccc2c(C)c(CCOC(=O)NCc3cccc(S(N)(=O)=O)c3)c(=O)oc2c1 [Compound 149, 2-(7-(diethylamino)-4-methyl-2-oxo-2H-chromen-3-yl)ethyl (3-sulfamoylbenzyl)carbamate] | C (C ≥ 0.6) |
| CCN(CC)c1ccc2c(C)c(CCC(=O)NCCc3ccccc3F)c(=O)oc2c1 [Compound 71] | A (A < 0.3)) |
| Cc1cc(=O)oc2cc(C(=O)NCc3ccncc3)ccc12 [Compound 228, 4-methyl-2-oxo-N-(pyridin-4-ylmethyl)-2H-chromene-7-carboxamide] | A (A < 0.3)) |
| CCN(CC)c1ccc2c(C)c(CCNC(=O)NCc3ccc4ccccc4c3)c(=O)oc2c1 [Compound 292, 1-(2-(7-(diethylamino)-4-methyl-2-oxo-2H-chromen-3-yl)ethyl)-3-(naphthalen-2-ylmethyl)urea] | C (C ≥ 0.6) |
| CCN(CC)c1ccc2c(C)c(CCOC(=O)NCc3ccncc3)c(=O)oc2c1 [Compound 86, 2-(7-(diethylamino)-4-methyl-2-oxo-2H-chromen-3-yl)ethyl (pyridin-4-ylmethyl)carbamate] | B (3 ≤ B < 0.6) |
| CCN(CC)c1ccc2c(C)c(CCOC(=O)N3CCC(C)(O)C3)c(=O)oc2c1 (stereo not drawn) [Compound 111, 2-(7-(diethylamino)-4-methyl-2-oxo-2H-chromen-3-yl)ethyl 3-hydroxy-3-methylpyrrolidine-1-carboxylate] | A (A < 0.3)) |

| Structure (SMILES) | Protection (fold protection of LC from protease) |
| --- | --- |
| CCN(CC)c1ccc2c(C)c(CCN3C(=O)NC4(CCN(C(=O)c5ccc(C(N)=O)cc5)CC4)C3=O)c(=O)oc2c1 [Compound 198, 4-(3-(2-(7-(diethylamino)-4-methyl-2-oxo-2H-chromen-3-yl)ethyl)-2,4-dioxo-1,3,8-triazaspiro[4.5]decane-8-carbonyl)benzamide] | B (3 ≤ B < 0.6) |
| CCN(CC)c1ccc2c(C)c(CCOC(=O)NCCc3ccccc3)c(=O)oc2c1 [Compound 80, 2-(7-(diethylamino)-4-methyl-2-oxo-2H-chromen-3-yl)ethyl phenethylcarbamate] | A (A < 0.3)) |
| CCN(CC)c1ccc2c(C)c(CCNC(=O)NCc3cncc4ccccc34)c(=O)oc2c1 [Compound 289, 1-(2-(7-(diethylamino)-4-methyl-2-oxo-2H-chromen-3-yl)ethyl)-3-(isoquinolin-4-ylmethyl)urea] | C (C ≥ 0.6) |
| CCN(CC)c1ccc2c(C)c(CCOC(=O)NCc3cncc4ccccc34)c(=O)oc2c1 [Compound 140, 2-(7-(diethylamino)-4-methyl-2-oxo-2H-chromen-3-yl)ethyl (isoquinolin-4-ylmethyl)carbamate] | A (A < 0.3)) |
| Cc1cc(=O)oc2cc(N(C)CC3CC3)ccc12 [Compound 255, 7-((cyclopropylmethyl)(methyl)amino)-4-methyl-2H-chromen-2-one] | A (A < 0.3)) |
| CCC(Oc1ccc2c(C)cc(=O)oc2c1)c1ccccc1 (stereo not drawn) [Compound 41, 4-methyl-7-(1-phenylpropoxy)-2H-chromen-2-one] | A (A < 0.3)) |
| CCN(CC)c1ccc2c(C)c(CCN3C(=O)NC4(CCN(C(=O)c5ncc[nH]5)C4)C3=O)c(=O)oc2c1 (stereo not drawn) [Compound 181, 3-(2-(7-(diethylamino)-4-methyl-2-oxo-2H-chromen-3-yl)ethyl)-7-(1H-imidazole-2-carbonyl)-1,3,7-triazaspiro[4.4]nonane-2,4-dione] | C (C ≥ 0.6) |
| CCN(CC)c1ccc2c(C)c(CCN3CC4(CCN(c5ncnc6[nH]ncc56)CC4)NC3=O)c(=O)oc2c1 [Compound 222, 3-(2-(7-(diethylamino)-4-methyl-2-oxo-2H-chromen-3-yl)ethyl)-8-(1H-pyrazolo[3,4-d]pyrimidin-4-yl)-1,3,8-triazaspiro[4.5]decan-2-one] | C (C ≥ 0.6) |
| CCN(CC)c1ccc2c(C)c(CCNC(=O)NCc3ccc4ccccc4n3)c(=O)oc2c1 [Compound 293, 1-(2-(7-(diethylamino)-4-methyl-2-oxo-2H-chromen-3-yl)ethyl)-3-(quinolin-2-ylmethyl)urea] | B (3 ≤ B < 0.6) |
| CCN(CC)c1ccc2c(C)c(CCNC(=O)NCc3cc(F)cc(C(=O)O)c3)c(=O)oc2c1 [Compound 297, 3-((3-(2-(7-(diethylamino)-4-methyl-2-oxo-2H-chromen-3-yl)ethyl)ureido)methyl)-5-fluorobenzoic acid] | A (A < 0.3)) |
| Cc1cc(=O)oc2cc(N3CCCC3)ccc12 [Compound 36, 4-methyl-7-(pyrrolidin-1-yl)-2H-chromen-2-one] | A (A < 0.3)) |
| C=C(C)CN(CC(=C)C)c1ccc2c(C)cc(=O)oc2c1 [Compound 243, 7-(bis(2-methylallyl)amino)-4-methyl-2H-chromen-2-one] | A (A < 0.3)) |
| CCN(CC)c1ccc2c(C)c(CCNC(=O)NCc3cc4ccccc4cn3)c(=O)oc2c1 [Compound 295, 1-(2-(7-(diethylamino)-4-methyl-2-oxo-2H-chromen-3-yl)ethyl)-3-(isoquinolin-3-ylmethyl)urea] | B (3 ≤ B < 0.6) |
| CCN(CC)c1ccc2c(C)c(CCN3CC4(CCN(c5ccccc5)CC4)NC3=O)c(=O)oc2c1 [Compound 158, 3-(2-(7-(diethylamino)-4-methyl-2-oxo-2H-chromen-3-yl)ethyl)-8-phenyl-1,3,8-triazaspiro[4.5]decan-2-one] | B (3 ≤ B < 0.6) |
| CCN(CC)c1ccc2c(C)c(CCOC(=O)NCc3cccc(NC(C)=O)c3)c(=O)oc2c1 [Compound 117, 2-(7-(diethylamino)-4-methyl-2-oxo-2H-chromen-3-yl)ethyl (3-acetamidobenzyl)carbamate] | C (C ≥ 0.6) |
| CCN(CC)c1ccc2c(C)c(CCNC(=O)NCc3cccc(OCC(=O)OC)c3)c(=O)oc2c1 [Compound 312, Methyl 2-(3-((3-(2-(7-(diethylamino)-4-methyl-2-oxo-2H-chromen-3-yl)ethyl)ureido)methyl)phenoxy)acetate] | C (C ≥ 0.6) |
